This is an account of results in patent US5328921A, “Aryl pyridinium compounds which are useful in treating shock” (American Cyanamid Company, priority 1992, dated 1994).

Assay [1] deals with PAF induced lethality in mice. The experiment in a line: PAF induced lethality in mice. Type of assay: in vivo. Conditions: 0.5 mg/kg IP 1/2 hour before lethal PAF I.V. challenge, alive after 2 hours, control (saline) 10; for responders at 0.5 mg/kg: Mus musculus, read-out: % Survival. As for the experimental part:
PAF given I.V. to mice causes an immediate hypotensive shock leading to death in 1 hour or less. Compounds are given intraperitoneally at 1/2 hour prior to the PAF challenge. Animals alive after 2 hours are counted and the activity of test compounds expressed as survival corrected for any control (saline treated) animals which survived the PAF challenge.

In another assay the target is T1, PAF receptor (Oryctolagus cuniculus, UniProt G1TEI7).
T1 construct: centrifuged at 800 rpm for 10-15 minutes at room temperature to recover the platelet rich plasma (PRP); endogenous in cells; host or cells: rabbit platelets (platelet rich plasma from citrated blood of male New Zealand White rabbits)
Put plainly: In vitro PAF antagonism: inhibition of PAF induced platelet aggregation in rabbit platelet rich plasma. Type of assay: cell-based, rabbit (male New Zealand White). To be noted: rabbit PRP; for % INH (% of inhibition of PAF induced platelet aggregation): Dose 1.00E-05 M. The method, then:
Test compounds are evaluated as PAF receptor antagonists in vitro by measuring inhibition of PAF (platelet activating factor) induced platelet aggregation. Platelet aggregation is measured by a modification of the method described in A. Wissnet, et. al., J. Med. Chem., 27 1174, 1984.
Approximately 120-240 ml of blood is collected by cardiac puncture from unanesthetized male New Zealand White rabbits (Whaley's Summit View Farms, Belvedere, N.J.) with the use of 3.2% sodium citrate anticoagulant (1 part of citrate/10 parts of blood). All syringes and pipers are plastic. The blood is gently mixed and immediately centrifuged at 800 rpm for 10-15 minutes at room temperature to recover the platelet rich plasma (PRP). Platelet poor plasma (PPP) is prepared by centrifuging PRP at 2800 rpm for 10 minutes at room temperature.
Dilutions (113000) of PRP in Isoton, diluent are made and platelet counts are determined on a Coulter Thrombocounter which is standardized with platelet reference standards (Interscience Platelet Control, Portland, Oreg.). PRP platelet counts are adJusted to approximately 400,000-500,000 platelets/11 by the addition of PPP.
L-PAF (Platelet Activating Factor) is obtained from Calbiochem. A stock solution of 1-2 E-3M is prepared in 10% ethanol in water or 100% methanol and serial working dilutions are made using saline. E-3M stock solutions of test compounds are prepared in 100% methanol and serially diluted in PBS. Sonication of samples before testing in biological screens assists in the solubility of compounds in the liquid medium. All solutions are made up in plastic tubes, stored on ice and protected from heat and light. Solutions are prepared fresh or frozen at -20° C. and used within 48 hours.
Incubation mixtures consisted of 400 11 PRP, 50 11 of saline diluent or test compound and 50 11 of PAF agohist. More specifically, 40011 of PRP is stabilized in a cuvette for 1-2 minutes at 37° C. in the aggregometer to achieve a stable baseline, then 50 11 of saline or test compound is added and incubated for 5 minutes before addition of the challenge concentration of PAF. A submaximal concentration is determined from the dose response curve for PAF for that experiment. In general, the challenge concentration is 5E-8 or 1E-7M. Aggregation is monitored for 5 minutes. Samples containing test compound or diluent are run simultaneously for comparison. Test compounds are initially evaluated at a screening concentration of 1E-SM.
The recording equipment consists of a dual channel Chronolog aggregometer connected to a dual channel 10MV full scale deflection Omniscribe chart recorder (Houston Instruments). The chart recorder is calibrated daily with the use of a suspension of Bio-Rad latex beads (S-X 12 400 mesh) which has a density slightly greater than rabbit PRP. The bead suspension is used to set the 0% light transmission mark and clear water is used to set the 100% light transmission mark. These limits defined a full scale deflection. The aggregation traces are analyzed by a digitizing method (C. Kohler and B. Zoltan, J. Pharm. Methods, 12, 113, 1984) with x, y coordinate data stored in a computer file. A suitable program computes parameters of interest such as the magnitude of aggregation.

Where “and” joins values, the source holds several entries; their conditions need not be identical. Equal values may be shown once. Where a name gives a salt, the structure may show the parent alone.

T1 sequence (G1TEI7 1-342): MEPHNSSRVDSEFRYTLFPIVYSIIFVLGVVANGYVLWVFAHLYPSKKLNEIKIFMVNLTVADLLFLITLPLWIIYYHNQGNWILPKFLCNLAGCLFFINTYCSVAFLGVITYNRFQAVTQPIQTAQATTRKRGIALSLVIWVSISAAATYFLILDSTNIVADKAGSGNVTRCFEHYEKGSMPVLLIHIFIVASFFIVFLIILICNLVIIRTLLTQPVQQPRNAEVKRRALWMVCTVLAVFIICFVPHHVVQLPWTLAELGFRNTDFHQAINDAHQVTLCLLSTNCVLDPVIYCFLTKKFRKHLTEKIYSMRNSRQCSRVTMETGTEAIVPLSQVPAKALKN

Turning to “2-[[Acetyl[[4-(tetradecyloxy)-benzoyl]methyl]amino]methyl]-1-ethylpyridinium iodide”, the “% Survival” value in assay [1] was determined as 40%. As usually defined, the IC50 is the midpoint of a concentration-inhibition curve. Read a low IC50 as greater potency. Consider `CCCCCCCCCCCCCCCCOc1ccc(OCC(=O)NCCc2cccc[n+]2CC)cc1` [1-Ethyl-2-[2-[[[4-(hexadecyloxy)phenoxy]acetyl]-amino]ethyl]pyridinium iodide], for which the 50% inhibitory concentration (IC50) against PAF receptor (PAF challenge 1.00E-07 M) was 4640 nM; against PAF receptor (PAF challenge 5.00E-08 M), 2700 nM and 3200 nM. `CCCCCCCCCCCCCCCCOc1ccc(OCC(=O)NCc2cccc[n+]2CC)cc1` [1-Ethyl-2-[[[[4-(hexadecyloxy)phenoxy]acetyl]amino]-methyl]pyridinium iodide]: the concentration for half-maximal inhibition (IC50) against PAF receptor (PAF challenge 5.00E-08 M) was 7200 nM and 5600 nM. Turning to `CCCCCCCCCCCCCCOc1ccc(C(=O)NCCc2cccc[n+]2C)cc1` [1-Methyl-2-[2-[[4-(tetradecyloxy)benzoyl]amino]-ethyl]pyridinium iodide], at PAF receptor (PAF challenge 1.00E-08 M), 14000 nM corresponded to half-maximal inhibition (IC50). `CCCCCCCCCCCCCCOc1ccc(CC(=O)NCCc2cccc[n+]2C)cc1` [1-Methyl-2-[2-[[[4-(tetradecyloxy)phenyl]acetyl]-amino]ethyl]pyridinium iodide] gave an IC50 against PAF receptor (PAF challenge 5.00E-08 M) of 15000 nM. In the case of `CCCCCCCCCCCCCCOc1ccc(C(=O)N(Cc2cccc[n+]2C)S(C)(=O)=O)cc1` [1-Methyl-2-[[(methylsulfonyl)[4-(tetradecyloxy)-benzoyl]amino]methyl]pyridinium salt with trifluoromethanesulfonic acid (1:1)], in assay [1], the responders at 0.5 mg/kg was determined as 88%. Regarding `CCCCCCCCCCCCCCOc1ccc(CN(Cc2cccc[n+]2C)S(C)(=O)=O)cc1` [1-Methyl-2-[[(methylsulfonyl)[[4-(tetradecyloxy)-phenyl]methyl]amino]methyl]pyridinium iodide], the responders at 0.5 mg/kg in assay [1] was determined as 55%. On to `CCCCCCCCCCCCCCOc1ccc(C(=O)NCc2cccc[n+]2C)cc1OCCCCCCCCCCCCCC` [1-Methyl-2-[[[3,4-bis(tetradecyloxy)benzoyl]amino]-methyl]pyridinium iodide], for which the responders at 0.5 mg/kg in assay [1] was determined as 0%.

In the case of `CCCCCCCCCCCCCCOc1ccc(CN(C(=O)c2ccc[n+](C)c2)c2ccccc2)cc1` [1-Methyl-3-[[phenyl[[4-(tetradecyloxy)phenyl]methyl]-amino]carbonyl]pyridinium iodide], the responders at 0.5 mg/kg in assay [1] was found to be 69%. As to `CCCCCCCCCCCCCCOc1ccc(CNC(=O)c2cc[n+](C)cc2)cc1` [1-Methyl-4-[[[[4-(tetradecyloxy)phenyl]methyl]amino]-carbonyl]pyridinium iodide], the IC50 against PAF receptor (PAF challenge 5.00E-08 M) was 60000 nM. As for `CCCCCCCCCCCCCCOc1ccc(C(=O)N(Cc2cccc[n+]2C)C(=O)c2ccccc2OC)cc1` [2-[[(2-Methoxybenzoyl)[4-(tetradecyloxy)]benzoyl]-amino]methyl]-1-methylpyridinium iodide], at PAF receptor (PAF challenge 5.00E-08 M), the “% INH (% of inhibition of PAF induced platelet aggregation)” value was determined as 0% and the IC50 is 1500 nM.

Regarding `CCCCCCCOc1ccc(C(=O)N(Cc2cccc[n+]2C)C(C)=O)cc1OCCCCCCC` [2-[[Acetyl[3,4-bis(heptyloxy)benzoyl]amino]methyl]-1-methylpyridinium iodide], the responders at 0.5 mg/kg in assay [1] worked out at 45%. Take `CCCCCCCCCCCCCCOc1ccc(C(=O)N(Cc2cccc[n+]2C)C(C)=O)cc1OCCCCCCCCCCCCCC` [2-[[Acetyl[3,4-bis(tetradecyloxy)benzoyl]amino]-methyl]-1-methylpyridinium iodide]: in assay [1], the responders at 0.5 mg/kg was 36%. Take `CCCCCCCCCCCCCCOc1ccc(C(=O)N(Cc2cccc[n+]2C)C(C)=O)cc1C(C)(C)C` [2-[[Acetyl[3-(1,1-dimethylethyl)-4-(tetradecyloxy)-benzoyl]amino]methyl]-1-methylpyridinium iodide]: in assay [1], the responders at 0.5 mg/kg came to 60%. In addition, the IC50 on PAF receptor (PAF challenge 1.00E-07 M) was 14.1 nM and 36 nM; on PAF receptor (PAF challenge 5.00E-08 M), 21.5 nM. On to `CCCCCCCCCCCCCCOc1ccc(C(=O)N(Cc2cccc[n+]2CC)C(C)=O)cc1OC.[I-]` [2-[[Acetyl[3-methoxy-4-(tetradecyloxy)benzoyl]amino]-methyl]-1-ethylpyridinium iodide], for which the responders at 0.5 mg/kg in assay [1] turned out to be 29%. Moreover, at PAF receptor (PAF challenge 5.00E-08 M), the “% INH (% of inhibition of PAF induced platelet aggregation)” value is 95%; the IC50 is 70.3 nM and 240 nM.

For the compound `CCCCCCCCCCCCCCOc1ccc(C(=O)N(Cc2cccc[n+]2C)C(C)=O)cc1OC` [2-[[Acetyl[3-methoxy-4-(tetradecyloxy)benzoyl]amino]-methyl]-1-methylpyridinium iodide], the responders at 0.5 mg/kg in assay [1] was 43%. The compound also yielded an IC50 at PAF receptor (PAF challenge 5.00E-08 M) of 63.6 nM. For `CCCCCCCCCCCCCCOc1ccc(C(=O)N(Cc2cccc[n+]2Cc2ccccc2)C(C)=O)cc1` [2-[[Acetyl[4-(tetradecyloxy)benzoyl]amino]methyl]-1-(phenylmethyl)pyridinium bromide], the responders at 0.5 mg/kg in assay [1] was 0%. The same compound came in with an IC50 at PAF receptor (PAF challenge 5.00E-08 M) of 300000 nM.

Take `CCCCCCCCCCCCCCOc1ccc(C(=O)N(Cc2cccc[n+]2C)C(C)=O)cc1.[I-]` [2-[[Acetyl[4-(tetradecyloxy)benzoyl]amino]methyl]-1-methylpyridinium iodide]: the responders at 0.5 mg/kg in assay [1] was 27%. At PAF receptor (PAF challenge 5.00E-08 M), the “% INH (% of inhibition of PAF induced platelet aggregation)” value is on record as 0%; the IC50 was 860 nM and 700 nM and 960 nM and 1300 nM. With `CCCCCCCCCCCCCCOc1cc(C(=O)N(Cc2cccc[n+]2C)C(C)=O)ccc1OC` [2-[[Acetyl[4-methoxy-3-(tetradecyloxy)benzoyl]-amino]methyl]-1-methylpyridinium iodide], the responders at 0.5 mg/kg in assay [1] was found to be 21%. Moreover, the IC50 against PAF receptor (PAF challenge 5.00E-08 M) is 160000 nM.

For `CCCCCCCCCCCCCCCCOc1ccc(OCC(=O)N(Cc2cccc[n+]2C)C(C)=O)cc1` [2-[[Acetyl[[4-(hexadecyloxy)phenoxy]acetyl]amino]-methyl]-1-methylpyridinium iodide], on PAF receptor (PAF challenge 5.00E-08 M), half-maximal inhibition (IC50) required 280000 nM. With `CCCCCCCCCCCCCCOc1ccc(CN(Cc2cccc[n+]2CC)C(C)=O)cc1` [2-[[Acetyl[[4-(tetradecyloxy)phenyl]methyl]amino]-methyl]-1-ethylpyridiniumiodide], on PAF receptor (PAF challenge 1.00E-07 M), the IC50 worked out at 13000 nM. `CCCCCCCCCCCCCCOc1ccc(COC(=O)N(Cc2cccc[n+]2C)C(C)=O)cc1` [2-[[Acetyl[[[4-(tetradecyloxyphenyl]methoxy]-carbonyl]amino]methyl]-1-methylpyridinium iodide]: the responders at 0.5 mg/kg in assay [1] was found to be 40%. `CCCCCCCCCCCCCCOc1ccc(C(=O)N(Cc2ccc[n+](C)c2)C(C)=O)cc1C(C)(C)C` [3-[[Acetyl[3-(1,1-dimethylethyl)-4-(tetradecyloxy)-benzoyl]amino]methyl]-1-methylpyridinium iodide] returned a 50% inhibitory concentration (IC50) against PAF receptor (PAF challenge 5.00E-08 M) of 20000 nM. Turning to `CCCCCCCCCCCCCCOc1ccc(C(=O)N(Cc2ccc[n+](C)c2)C(C)=O)cc1` [3-[[Acetyl[4-(tetradecyloxy)benzoyl]amino]methyl]-1-methylpyridinium iodide], at PAF receptor (PAF challenge 5.00E-08 M), half-maximal inhibition (IC50) was put at 6800 nM. Take `CCCCCCCCCCCCCCOc1ccc(N(Cc2ccc[n+](C)c2)C(C)=O)cc1` [3-[[Acetyl[4-(tetradecyloxy)phenyl]amino]methyl]-1-methylpyridinium iodide]: the responders at 0.5 mg/kg in assay [1] was 7%. For the compound `CCCCCCCCCCCCCCOc1ccc(CN(C(=O)c2ccc[n+](CCC)c2)c2ccccc2)cc1` [3-[[Phenyl[[4-(tetradecyloxy)phenyl]methyl]amino]-carbonyl]-1-propylpyridinium iodide], in assay [1], the responders at 0.5 mg/kg was 64%.

With `CCCCCCCCCCCCCCOc1ccc(CN(Cc2cc[n+](C)cc2)C(C)=O)cc1` [4-[[Acetyl[[4-(tetradecyloxy)phenyl]methyl]amino]-methyl]-1-methylpyridinium iodide], at PAF receptor (PAF challenge 5.00E-08 M), the IC50 amounted to 1000 nM.
